According to patent US8569298B2, “Pyridine compounds” (Astrazeneca AB, priority 2008, dated 2013):

These compounds were tested against T1, FAK enzyme (6 His tagged kinase domain, GenBank NP—722560) (Homo sapiens, UniProt Q05397) (assay: In vitro enzyme assay (a): sandwich ELISA of FAK tyrosine kinase activity on polyGAT peptide, TMB colorimetric endpoint). Conditions: in vitro Enzyme Assay test (a); ATP at Km; geometric mean of n > 1 measurements, values marked * tested once.
T1 construct: 6 His; made in house; host or cells: insect cell culture infected with baculovirus
Format: biochemical
Summary of the method: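 Recombinant His-tagged FAK kinase domain (baculovirus/insect cells) phosphorylated plate-coated polyGAT with ATP at Km, MgCl2/MnCl2, HEPES pH 7.4, 25 min at room temperature before EDTA stop. Phosphotyrosine detected by HRP-4G10 antibody and TMB absorbance at 450 nm; IC50 from 12-point curve anchored to DMSO and staurosporine controls.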

T1 sequence (Q05397 422-680 limits assumed): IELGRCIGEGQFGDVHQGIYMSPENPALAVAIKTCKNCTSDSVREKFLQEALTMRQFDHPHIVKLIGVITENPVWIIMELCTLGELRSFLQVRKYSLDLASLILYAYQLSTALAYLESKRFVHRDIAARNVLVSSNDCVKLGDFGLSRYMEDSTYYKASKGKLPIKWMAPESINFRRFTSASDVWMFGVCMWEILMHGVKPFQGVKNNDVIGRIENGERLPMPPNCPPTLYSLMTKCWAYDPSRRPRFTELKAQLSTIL

| SMILES | IC50 [nM] |
| --- | --- |
| CNC(=O)c1ccccc1Nc1cc(Nc2cn(C)nc2C(=O)NC)ncc1C(F)(F)F [Example 12.07, N,1-dimethyl-4-[[4-[[2-(methylcarbamoyl)phenyl]amino]-5-(trifluoromethyl)-2-pyridyl]amino]pyrazole-3-carboxamide] | 171 |
| CNC(=O)c1ccccc1Nc1cc(Nc2cn(C)nc2C(=O)N(C)C)ncc1C(F)(F)F [Example 12.08, N,N,1-trimethyl-4-[[4-[[2-(methylcarbamoyl)phenyl]amino]-5-(trifluoromethyl)-2-pyridyl]amino]pyrazole-3-carboxamide] | 482 |
| CNC(=O)c1ccccc1Nc1cc(Nc2c[nH]nc2C)ncc1C(F)(F)F [Example 12.09, N-methyl-2-[[2-[(3-methyl-1H-pyrazol-4-yl)amino]-5-(trifluoromethyl)-4-pyridyl]amino]benzamide] | 3 |
| CNC(=O)c1ccccc1Nc1cc(Nc2cn(C)nc2COC)ncc1C(F)(F)F [Example 12.10, 2-[[2-[[3-(methoxymethyl)-1-methyl-pyrazol-4-yl]amino]-5-(trifluoromethyl)-4-pyridyl]amino]-N-methyl-benzamide] | 10 |
| CNC(=O)c1ccccc1Nc1cc(Nc2cn(C)nc2C#N)ncc1C(F)(F)F [Example 12.11, 2-[[2-[(3-cyano-1-methyl-pyrazol-4-yl)amino]-5-(trifluoromethyl)-4-pyridyl]amino]-N-methyl-benzamide] | 15 |
| CNC(=O)c1ccccc1Nc1cc(Nc2cn(C)nc2OC)ncc1C(F)(F)F [Example 12.12, 2-[[2-[(3-methoxy-1-methyl-pyrazol-4-yl)amino]-5-(trifluoromethyl)-4-pyridyl]amino]-N-methyl-benzamide] | 3 |
| CNC(=O)c1ccccc1Nc1cc(Nc2cn(C(C)C)nc2C)ncc1C(F)(F)F [Example 13.02, 2-[[2-[(1-isopropyl-3-methyl-pyrazol-4-yl)amino]-5-(trifluoromethyl)-4-pyridyl]amino]-N-methyl-benzamide] | 21 |
| CNC(=O)c1ccccc1Nc1cc(Nc2cn(C(F)F)nc2C)ncc1C(F)(F)F [Example 13.03, 2-[[2-[[1-(difluoromethyl)-3-methyl-pyrazol-4-yl]amino]-5-(trifluoromethyl)-4-pyridyl]amino]-N-methyl-benzamide] | 50 |
| CONC(=O)c1ccccc1Nc1cc(Nc2cc(C)nn2C)ncc1C(F)(F)F [Example 14.02, 2-[[2-[(2,5-dimethylpyrazol-3-yl)amino]-5-(trifluoromethyl)-4-pyridyl]amino]-N-methoxy-benzamide] | 2 |

The remaining lines, values ahead:

| IC50 [nM] | SMILES |
| --- | --- |
| 13 | Cc1nn(C(C)C)cc1Nc1cc(Nc2cccc3c2C(=O)N(C)CC3)c(Cl)cn1 [Example 13.01, 8-[[5-chloro-2-[(1-isopropyl-3-methyl-pyrazol-4-yl)amino]-4-pyridyl]amino]-2-methyl-3,4-dihydroisoquinolin-1-one] |
| 23 | Cc1nn(C(F)F)cc1Nc1cc(Nc2cccc3c2C(=O)N(C)CC3)c(Cl)cn1 [Example 13.04, 8-[[5-chloro-2-[[1-(difluoromethyl)-3-methyl-pyrazol-4-yl]amino]-4-pyridyl]amino]-2-methyl-3,4-dihydroisoquinolin-1-one] |
| 4 | Cc1nn(CCO)cc1Nc1cc(Nc2cccc3c2C(=O)N(C)CC3)c(Cl)cn1 [Example 13.05, 8-[[5-chloro-2-[[1-(2-hydroxyethyl)-3-methyl-pyrazol-4-yl]amino]-4-pyridyl]amino]-2-methyl-3,4-dihydroisoquinolin-1-one] |
| 6 | CNC(=O)c1ccccc1Nc1cc(Nc2cn(CCO)nc2C)ncc1C(F)(F)F [Example 13.06, 2-[[2-[[1-(2-hydroxyethyl)-3-methyl-pyrazol-4-yl]amino]-5-(trifluoromethyl)-4-pyridyl]amino]-N-methyl-benzamide] |
| 4 | CONC(=O)c1c(Nc2cc(Nc3cn(C)nc3C)ncc2C(F)(F)F)cccc1OC [Example 14.01, 2-[[2-[(1,3-dimethylpyrazol-4-yl)amino]-5-(trifluoromethyl)-4-pyridyl]amino]-N,6-dimethoxy-benzamide] |
